This note sets out measurements from US20240342292A1, “Compounds for the Degradation of EGFR Kinase” (BeiGene Switzerland GmbH, priority 2021, published 2024).

In general, DC50 refers to the concentration giving 50% degradation. Low readings indicate a more potent degrader, high ones a less potent degrader. As usually defined, the Dmax is the largest share of the target that was removed. A higher Dmax goes with deep degradation.

The test system of one assay is Del19/T790M/C797S EGFR. The assay is described as follows: EGFR degradation HTRF assay in H1975-clone #28 (DTC) cells. Format: cell-based. The conditions noted are these: H1975 # 28 DTC (Del19/T790M/C797S), 16h treatment; for DC50: HTRF; for Dmax (%): maximum percentage of degradation. The gist of the method:
(§1)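 DC50 from a four-parameter fit of HTRF signal. H1975 mutant-EGFR clones with endogenous EGFR knocked out; 16 h treatment, 10 uM top, 5-fold × 8.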
For orientation: Time-resolved FRET reads energy transfer from a long-lived donor to a nearby acceptor.

For the next assay, the target named is T1, L858R/T790M/C797S EGFR (Homo sapiens, UniProt P00533, C797S/L858R/T790M).
T1 construct: expressed in transfected cells; host or cells: H1975 clone #25 (lentiviral over-expression, endogenous EGFR knocked out by sgRNA)
The assay is described as follows: EGFR degradation HTRF assay in H1975-clone #25 (LTC) cells. Format: cell-based. The conditions noted are these: 16h treatment; for DC50: H1975 # 25-LTC (L858R/T790M/C797S), HTRF; for Dmax: NCI-H1975, H1975 # 25-LTC (L858R/T790M/C797S), maximum percentage of degradation. Summed up: as §1

T1 sequence (P00533 25-1210 T790M/C797S/L858R): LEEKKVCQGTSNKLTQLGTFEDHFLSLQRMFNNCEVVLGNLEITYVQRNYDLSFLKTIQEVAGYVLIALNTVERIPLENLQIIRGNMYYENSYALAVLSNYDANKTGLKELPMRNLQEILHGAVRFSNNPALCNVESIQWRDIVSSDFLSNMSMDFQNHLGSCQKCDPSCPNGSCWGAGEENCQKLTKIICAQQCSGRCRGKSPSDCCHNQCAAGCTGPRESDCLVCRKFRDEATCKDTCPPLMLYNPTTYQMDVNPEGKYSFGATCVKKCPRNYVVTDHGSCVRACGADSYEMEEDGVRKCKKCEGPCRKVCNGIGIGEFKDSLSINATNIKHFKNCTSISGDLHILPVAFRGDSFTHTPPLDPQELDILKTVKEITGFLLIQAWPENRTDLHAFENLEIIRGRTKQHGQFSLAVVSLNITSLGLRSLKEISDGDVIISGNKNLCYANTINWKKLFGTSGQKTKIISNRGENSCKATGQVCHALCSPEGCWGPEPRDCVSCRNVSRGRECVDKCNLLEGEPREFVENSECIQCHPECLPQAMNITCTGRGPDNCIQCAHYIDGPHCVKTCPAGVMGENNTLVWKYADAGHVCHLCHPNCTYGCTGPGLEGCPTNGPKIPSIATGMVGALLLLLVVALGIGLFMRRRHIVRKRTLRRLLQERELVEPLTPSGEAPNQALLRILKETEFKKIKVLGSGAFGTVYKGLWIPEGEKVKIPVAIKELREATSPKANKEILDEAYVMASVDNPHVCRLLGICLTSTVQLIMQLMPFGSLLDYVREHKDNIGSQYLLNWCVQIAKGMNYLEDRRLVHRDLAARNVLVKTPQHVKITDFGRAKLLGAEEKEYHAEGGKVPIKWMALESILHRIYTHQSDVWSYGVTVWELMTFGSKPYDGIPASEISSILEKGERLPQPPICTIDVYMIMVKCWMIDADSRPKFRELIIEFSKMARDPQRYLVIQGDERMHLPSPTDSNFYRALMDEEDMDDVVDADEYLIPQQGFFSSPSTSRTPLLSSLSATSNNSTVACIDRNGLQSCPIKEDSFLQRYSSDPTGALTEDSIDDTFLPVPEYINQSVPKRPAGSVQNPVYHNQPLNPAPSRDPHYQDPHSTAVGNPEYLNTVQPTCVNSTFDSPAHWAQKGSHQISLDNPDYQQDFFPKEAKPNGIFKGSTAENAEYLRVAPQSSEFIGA

For `Cc1cc2cc(n1)-c1cnn(C)c1OCCC[C@@H](C)CN1/C(=N/C2=O)Nc2ccc(C(=O)N(C3CC3)C3CCN(CCc4cc(F)c([C@H]5CCC(=O)NC5=O)c(F)c4)CC3)cc21` [Example 239, (R,E)-N-cyclopropyl-N-(1-(4-((R)-2,6-dioxopiperidin-3-yl)-3,5-difluorophenethyl)piperidin-4-yl)-1^1, 2^6,7-trimethyl-3-oxo-5^2,5^3-dihydro-1^1H,5^1H-11-oxa-4-aza-5(2,1)-benzo[d]imidazola-2(2,4)-pyridina-1(4,5)-pyrazolacycloundecaphane-5^6-carboxamide], in the assay with Del19/T790M/C797S EGFR, the DC50 came out at 0.205 nM and the “Dmax (%)” value was found to be 83.87%. At L858R/T790M/C797S EGFR, the DC50 was found to be 0.604 nM and the greatest degradation seen (Dmax) was 87.9%.
In the same order, the values of `Cc1cc2cc(n1)-c1cnn(C)c1OCCC[C@@H](C)CN1/C(=N/C2=O)Nc2ccc(C3CCN(C(=O)C4CN(c5cc(F)c([C@H]6CCC(=O)NC6=O)c(F)c5)C4)CC3)cc21` [Example 158, (R)-3-(2,6-difluoro-4-(3-(4-((R,E)-1^1,2^6,7-trimethyl-3-oxo-5^2,5-dihydro-1^1H,5^1H-11-oxa-4-aza-5(2, 1)-benzo[d]imidazola-2(2,4)-pyridina-1(4,5)-pyrazolacycloundecaphane-5^6-yl)piperidine-1-carbonyl)azetidin-1-yl)phenyl)piperidine-2,6-dione] are 0.868 nM, 72.14%, 0.852 nM and 82.2%.
With `Cc1cc2cc(n1)-c1cnn(C)c1OCCC[C@@H](C)CN1/C(=N/C2=O)Nc2cc(C)c(C(=O)N(C)C3CCN(CCc4cc(F)c([C@H]5CCC(=O)NC5=O)c(F)c4)CC3)cc21` [Example 336, (R,E)-N-(1-(4-((R)-2,6-dioxopiperidin-3-yl)-3,5-difluorophenethyl)piperidin-4-yl)-N,1^1,2^6,5^5,7-penta methyl-3-oxo-5^2,5^3-dihydro-1^1H,5^1H-11-oxa-4-aza-5(2,1)-benzo[d]imidazola-2(2,4)-pyridina-1(4,5)-pyrazolacycloundecaphane-5^6-carboxamide], in the assay with Del19/T790M/C797S EGFR, the DC50 was 0.304 nM and the “Dmax (%)” value was found to be 72.28%. Also, on L858R/T790M/C797S EGFR, the DC50 was found to be 0.386 nM and the Dmax came out at 88.4%.
For `Cc1cc2cc(n1)-c1cnn(C)c1OCCC[C@@H](C)CN1/C(=N/C2=O)Nc2ccc(C(=O)OC3CCN(CCc4cc(F)c([C@H]5CCC(=O)NC5=O)c(F)c4)CC3)cc21` [Example 313, 1-(4-((R)-2,6-dioxopiperidin-3-yl)-3,5-difluorophenethyl)piperidin-4-yl (R,E)-1^1,2^6,7-trimethyl-3-oxo-5^2,5^3-dihydro-1^1H,5^1H-11-oxa-4-aza-5(2,1)-benzo[d]imidazola-2(2,4)-pyridina-1(4,5)-pyrazolacycloundecaphane-5^6-carboxylate], in that order: 0.967 nM, 70.56%, 1.25 nM and 81%.
In the same order, the values of `CO[C@@H]1CN(CCc2cc(F)c([C@H]3CCC(=O)NC3=O)c(F)c2)CC[C@H]1NC(=O)c1ccc2c(c1)N1C[C@H](C)CCCOc3c(cnn3C)-c3cc(cc(C)n3)C(=O)/N=C/1N2` [Example 253, (R,E)-N—((3R,4R)-1-(4-((R)-2,6-dioxopiperidin-3-yl)-3,5-difluorophenethyl)-3-methoxypiperidin-4-yl)-1^1,2^6,7-trimethyl-3-oxo-5^2,5^3-dihydro-1^1H,5^1H-11-oxa-4-aza-5(2,1)-benzo[d]imidazola-2(2,4)-pyridina-1(4,5)-pyrazolacycloundecaphane-5^6-carboxamide] are 0.59 nM, 82.5%, 0.289 nM and 93.8%.
In the same order, the values of `Cc1cc2cc(n1)-c1cnn(C)c1OCCC[C@@H](C)CN1/C(=N/C2=O)Nc2ccc(C(=O)N(C)C3CCN(CCc4cccc5c4C4(CC4)C(=O)N5C4CCC(=O)NC4=O)CC3)cc21` (stereo partly drawn) [Example 316, (7R,E)-N-(1-(2-(1′-(2,6-dioxopiperidin-3-yl)-2′-oxospiro[cyclopropane-1,3′-indolin]-4′-yl)ethyl)piperidin-4-yl)-N,1^1,2^6,7-tetramethyl-3-oxo-5^2,5′-dihydro-1^1H,5^1H-11-oxa-4-aza-5(2,1)-benzo[d]imidazola-2(2,4)-pyridina-1(4,5)-pyrazolacycloundecaphane-5^6-carboxamide] are 0.925 nM, 47.67%, 0.655 nM and 77.9%.
For the compound `Cc1cc2cc(n1)-c1cnn(C)c1OCCC[C@@H](C)CN1/C(=N/C2=O)Nc2ccc(C(=O)N[C@@H]3C[C@H]4CC[C@@H](C3)N4CCc3cc(F)c([C@H]4CCC(=O)NC4=O)c(F)c3)cc21` [Example 264, (R,E)-N—((1R,3S,5S)-8-(4-((R)-2,6-dioxopiperidin-3-yl)-3,5-difluorophenethyl)-8-azabicyclo[3.2.1]octan-3-yl)-1^1,2^6,7-trimethyl-3-oxo-5^2,5^3-dihydro-1^1H,5^1H-11-oxa-4-aza-5(2,1)-benzo[d]imidazola-2(2,4)-pyridina-1(4,5)-pyrazolacycloundecaphane-5^6-carboxamide], in the assay with Del19/T790M/C797S EGFR, the DC50 was found to be 0.677 nM and the “Dmax (%)” value came to 68.8%. At L858R/T790M/C797S EGFR, the DC50 turned out to be 0.546 nM and the greatest degradation seen (Dmax) worked out at 89.8%.
In the same order, the values of `Cc1cc2cc(n1)-c1cnn(C)c1OCCC[C@@H](C)CN1/C(=N/C2=O)Nc2ccc(CN3CCN(C(=O)[C@@H]4CCN(c5cc(F)c([C@H]6CCC(=O)NC6=O)c(F)c5)C4)C[C@@H]3C)cc21` [Example 99] are 0.7 nM, 75.6%, 1.4 nM and 82.7%.
In the case of `Cc1cc2cc(n1)-c1cnn(C)c1OCCC[C@@H](C)CN1/C(=N/C2=O)Nc2ccc(C(=O)N(C)[C@@H]3CCN(CCc4cc(F)c([C@H]5CCC(=O)NC5=O)c(F)c4)[C@@H](C)C3)cc21` [Example 258, (R,E)-N—((2S,4R)-1-(4-((R)-2,6-dioxopiperidin-3-yl)-3,5-difluorophenethyl)-2-methylpiperidin-4-yl) -N,1^1,2^6,7-tetramethyl-3-oxo-5^2,5^3-dihydro-1^1H,5^1H-11-oxa-4-aza-5(2,1)-benzo[d]imidazola-2(2,4)-pyridina-1(4,5)-pyrazolacycloundecaphane-5^6-carboxamide], in the assay with Del19/T790M/C797S EGFR, it took 0.577 nM to reach half-maximal degradation (DC50) and the “Dmax (%)” value is on record as 81.96%. On L858R/T790M/C797S EGFR, the DC50 stood at 0.381 nM and the Dmax turned out to be 88.2%.
In the same order, the values of `Cc1cc2cc(n1)-c1cnn(C)c1OCCC[C@@H](C)CN1/C(=N/C2=O)Nc2ccc(CN3CCN(C(=O)[C@@H]4CCN(c5cc(F)c(C6CCC(=O)NC6=O)c(F)c5)C4)[C@H](C)C3)cc21` (stereo partly drawn) [Example 106, (R)-3-(2,6-difluoro-4-((R)-3-((R)-2-methyl-4-(((R,E)-1^1,2^6m7-trimethyl-3-oxo-5^2,5^3-dihydro-1^1H,5^1H -11-oxa-4-aza-5(2,1)-benzo[d]imidazola-2(2,4)-pyridina-1(4,5)-pyrazolacycloundecaphane-5^6-yl)methyl)piperazine-1-carbonyl)pyrrolidin-1-yl)phenyl)piperidine-2,6-dione] are 1.2 nM, 74.4%, 1.7 nM and 79.1%.
Take `Cc1cc2cc(n1)-c1cnn(C)c1OCCC[C@@H](C)CN1/C(=N/C2=O)Nc2ccc(C3CCN(CC4CCN(c5cc(F)c([C@H]6CCC(=O)NC6=O)c(F)c5)CC4)CC3)cc21` [Example 323, (R)-3-(2,6-difluoro-4-(4-((4-((R,E)-1^1,2^6,7-trimethyl-3-oxo-5^2,5^3-dihydro-1^1H,5^1H-11-oxa-4-aza-5(2,1)-benzo[d]imidazola-2(2,4)-pyridina-1(4,5)-pyrazolacycloundecaphane-5^6-yl)piperidin-1-yl)methyl)piperidin-1-yl)phenyl)piperidine-2,6-dione]: in the assay on Del19/T790M/C797S EGFR, the DC50 amounted to 1.03 nM and the “Dmax (%)” value is listed as 49.97%. Further, on L858R/T790M/C797S EGFR, the DC50 is 1.03 nM and the Dmax is 63.9%.
Regarding `Cc1cc2cc(n1)-c1cnn(C)c1OCCC[C@@H](C)CN1/C(=N/C2=O)Nc2ccc(C(=O)N(C)[C@@H]3CCN(CCc4cc(F)c([C@H]5CCC(=O)NC5=O)c(F)c4)CC3(F)F)cc21` [Example 250, (R,E)-N—((R)-1-(4-((R)-2,6-dioxopiperidin-3-yl)-3,5-difluorophenethyl)-3,3-difluoropiperidin-4-yl)-N,1^1,2^6,7-tetramethyl-3-oxo-5^2,5^3-dihydro-1^1H,5^1H-11-oxa-4-aza-5(2,1)-benzo[d]imidazola-2(2,4)-pyridina-1(4,5)-pyrazolacycloundecaphane-5^6-carboxamide], in the assay on Del19/T790M/C797S EGFR, the DC50 was 0.59 nM and the “Dmax (%)” value is listed as 82.13%. At L858R/T790M/C797S EGFR, this compound registered a DC50 of 1.06 nM and a Dmax of 88.9%.
For `Cc1cc2cc(n1)-c1cnn(C)c1OCCC[C@@H](C)CN1/C(=N/C2=O)Nc2ccc(C(=O)N(C)[C@@H]3CCN(CCc4cc(F)c([C@H]5CCC(=O)NC5=O)c(F)c4)CC3(C)C)cc21` [Example 262, (R,E)-N—((R)-1-(4-((R)-2,6-dioxopiperidin-3-yl)-3,5-difluorophenethyl)-3,3-dimethylpiperidin-4-yl)-N,1^1,2^6,7-tetramethyl-3-oxo-5^2,5^3-dihydro-1^1H,5^1H-11-oxa-4-aza-5(2,1)-benzo[d]imidazola-2(2,4)-pyridina-1(4,5)-pyrazolacycloundecaphane-5^6-carboxamide], in that order: 0.474 nM, 76.44%, 0.543 nM and 84.2%.
